Values of other authors in patent US20250082624A1, “METHODS OF TREATING COGNITIVE IMPAIRMENT” (NeuroTherapia, Inc., priority 2023, published 2025).

Test system: rats
Conditions: intracerebroventricular administration; cited from earlier work

## Cc1c(C(=O)c2cccc3ccccc23)c2cccc3c2n1[C@H](CN1CCOCC1)CO3 [WIN 55,212-2]
  Aβ-induced microglial activation, cognitive impairment, loss of neuronal markers: prevented A13-induced microglial activation, cognitive impairment, and loss of neuronal markers
